pIC50: −log10 of the molar value.
System: 772245-204-R-J1-PDC complex spheroid growth
Experiment: Anticancer human tumor 772245-204-R-J1-PDC patient-derived rhabdomyosarcoma cell line growth inhibition [Asc]
Details: for pIC50: curve of first compound; for viability, T/C: stronger effect = lower value
Method in brief: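 Tumor cells were grown as multicellular spheroids with stromal HUVEC and mesenchymal stem cells and treated singly or in combination. Concentrations fell in half-log steps from the clinical Cmax, or from 10 microM where none was known.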

[1] = second compound 0.01 µM, first compound 0.00316 µM
[2] = second compound 0.01 µM, first compound 0.01 µM
[3] = second compound 0.01 µM, first compound 0.0316 µM
[4] = second compound 0.01 µM, first compound 0.1 µM
[5] = second compound 0.0316 µM, first compound 0.00316 µM
[6] = second compound 0.0316 µM, first compound 0.01 µM
[7] = second compound 0.0316 µM, first compound 0.0316 µM
[8] = second compound 0.0316 µM, first compound 0.1 µM
[9] = second compound 0.1 µM, first compound 0.00316 µM
[10] = second compound 0.1 µM, first compound 0.01 µM
[11] = second compound 0.1 µM, first compound 0.0316 µM
[12] = second compound 0.1 µM, first compound 0.1 µM
[13] = second compound 0.316 µM, first compound 0.00316 µM
[14] = second compound 0.316 µM, first compound 0.01 µM
[15] = second compound 0.316 µM, first compound 0.0316 µM
[16] = second compound 0.316 µM, first compound 0.1 µM
[17] = second compound 1 µM, first compound 0.00316 µM
[18] = second compound 1 µM, first compound 0.01 µM
[19] = second compound 1 µM, first compound 0.0316 µM
[20] = second compound 1 µM, first compound 0.1 µM
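Further: compound exposure lasted seven days.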
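Wherever viability, T/C is given: 100% = DMSO vehicle control viability.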

**Q.** With COc1c(OCCCN2CCOCC2)ccc2c3n(c(=NC(=O)c4cnc(N)nc4)nc12)CCN3 + CNC(C)C(=O)NC1CN(S(=O)(=O)c2cccc(S(=O)(=O)N3CCC4CCC(C(=O)NC(c5ccccc5)c5ccccc5)N4C(=O)C(NC(=O)C(C)NC)C3)c2)CCC2CCC(C(=O)NC(c3ccccc3)c3ccccc3)N2C1=O as the compound, how does the pIC50 (second compound 0.01 µM) read?
**A.** The pIC50 was 6.71.

**Q.** What about the pIC50 (second compound 0.0316 µM) of the same compound?
**A.** The pIC50 was 7.05.

**Q.** What about the pIC50 (second compound 0.1 µM) of the same compound?
**A.** Its pIC50 is 6.94.

**Q.** And the pIC50 (second compound 0.316 µM)?
**A.** The pIC50 was 7.14.

**Q.** And the pIC50 (second compound 1 µM)?
**A.** Its pIC50 is 6.95.

**Q.** And the viability, T/C [1]?
**A.** Its viability, T/C is 108%.

**Q.** What about the viability, T/C [2] of the same compound?
**A.** Its viability, T/C is 95.2%.

**Q.** What about the viability, T/C [3] of the same compound?
**A.** The viability, T/C was 81.7%.

**Q.** What about the viability, T/C [4] of the same compound?
**A.** Its viability, T/C is 64.3%.

**Q.** And the viability, T/C (second compound 0.01 µM, first compound 0.316 µM)?
**A.** The viability, T/C was 38.4%.

**Q.** And the viability, T/C (second compound 0.01 µM, first compound 1 µM)?
**A.** Its viability, T/C is 26.9%.

**Q.** And the viability, T/C [5]?
**A.** Its viability, T/C is 93.7%.

**Q.** And the viability, T/C [6]?
**A.** The viability, T/C was 112%.

**Q.** What about the viability, T/C [7] of the same compound?
**A.** The viability, T/C was 78.2%.

**Q.** What about the viability, T/C [8] of the same compound?
**A.** Its viability, T/C is 47.9%.

**Q.** What about the viability, T/C (second compound 0.0316 µM, first compound 0.316 µM) of the same compound?
**A.** Its viability, T/C is 38.8%.

**Q.** What about the viability, T/C (second compound 0.0316 µM, first compound 1 µM) of the same compound?
**A.** Its viability, T/C is 27.2%.

**Q.** What about the viability, T/C [9] of the same compound?
**A.** The viability, T/C was 97.4%.

**Q.** And the viability, T/C [10]?
**A.** Its viability, T/C is 97.2%.

**Q.** And the viability, T/C [11]?
**A.** The viability, T/C was 68.1%.

**Q.** And the viability, T/C [12]?
**A.** The viability, T/C was 53.8%.

**Q.** What about the viability, T/C (second compound 0.1 µM, first compound 0.316 µM) of the same compound?
**A.** The viability, T/C was 35.4%.

**Q.** And the viability, T/C (second compound 0.1 µM, first compound 1 µM)?
**A.** The viability, T/C was 23.2%.

**Q.** What about the viability, T/C [13] of the same compound?
**A.** Its viability, T/C is 92.9%.

**Q.** What about the viability, T/C [14] of the same compound?
**A.** Its viability, T/C is 93.8%.

**Q.** And the viability, T/C [15]?
**A.** Its viability, T/C is 73.4%.

**Q.** And the viability, T/C [16]?
**A.** The viability, T/C was 40.1%.

**Q.** And the viability, T/C (second compound 0.316 µM, first compound 0.316 µM)?
**A.** Its viability, T/C is 30.7%.

**Q.** And the viability, T/C (second compound 0.316 µM, first compound 1 µM)?
**A.** The viability, T/C was 22%.

**Q.** What about the viability, T/C [17] of the same compound?
**A.** Its viability, T/C is 86%.

**Q.** And the viability, T/C [18]?
**A.** Its viability, T/C is 96.6%.

**Q.** What about the viability, T/C [19] of the same compound?
**A.** The viability, T/C was 75.7%.

**Q.** What about the viability, T/C [20] of the same compound?
**A.** Its viability, T/C is 51.3%.

**Q.** What about the viability, T/C (second compound 1 µM, first compound 0.316 µM) of the same compound?
**A.** Its viability, T/C is 32.5%.

**Q.** And the viability, T/C (second compound 1 µM, first compound 1 µM)?
**A.** Its viability, T/C is 21.6%.

**Q.** With NC(=O)C(=Cn1cnc(-c2cc(C(F)(F)F)cc(C(F)(F)F)c2)n1)c1cncnc1 + CNC(C)C(=O)NC1CN(S(=O)(=O)c2cccc(S(=O)(=O)N3CCC4CCC(C(=O)NC(c5ccccc5)c5ccccc5)N4C(=O)C(NC(=O)C(C)NC)C3)c2)CCC2CCC(C(=O)NC(c3ccccc3)c3ccccc3)N2C1=O as the compound, how does the pIC50 (second compound 0.01 µM) read?
**A.** Its pIC50 is under 6.52.

**Q.** What about the pIC50 (second compound 0.0316 µM) of the same compound?
**A.** The pIC50 was under 6.52.

**Q.** What about the pIC50 (second compound 0.1 µM) of the same compound?
**A.** The pIC50 was under 6.52.

**Q.** And the pIC50 (second compound 0.316 µM)?
**A.** The pIC50 was under 6.52.

**Q.** And the pIC50 (second compound 1 µM)?
**A.** Its pIC50 is under 6.52.

**Q.** What about the viability, T/C (second compound 0.01 µM, first compound 0.000949 µM) of the same compound?
**A.** The viability, T/C was 96.8%.

**Q.** What about the viability, T/C (second compound 0.01 µM, first compound 0.003 µM) of the same compound?
**A.** Its viability, T/C is 107%.

**Q.** What about the viability, T/C (second compound 0.01 µM, first compound 0.00949 µM) of the same compound?
**A.** The viability, T/C was 100%.

**Q.** What about the viability, T/C (second compound 0.01 µM, first compound 0.03 µM) of the same compound?
**A.** The viability, T/C was 84.2%.

**Q.** What about the viability, T/C (second compound 0.01 µM, first compound 0.0949 µM) of the same compound?
**A.** Its viability, T/C is 62.2%.

**Q.** What about the viability, T/C (second compound 0.01 µM, first compound 0.3 µM) of the same compound?
**A.** The viability, T/C was 68.5%.

**Q.** What about the viability, T/C (second compound 0.0316 µM, first compound 0.000949 µM) of the same compound?
**A.** Its viability, T/C is 92.9%.

**Q.** What about the viability, T/C (second compound 0.0316 µM, first compound 0.003 µM) of the same compound?
**A.** The viability, T/C was 114%.

**Q.** And the viability, T/C (second compound 0.0316 µM, first compound 0.00949 µM)?
**A.** The viability, T/C was 100%.

**Q.** What about the viability, T/C (second compound 0.0316 µM, first compound 0.03 µM) of the same compound?
**A.** The viability, T/C was 77.2%.

**Q.** And the viability, T/C (second compound 0.0316 µM, first compound 0.0949 µM)?
**A.** Its viability, T/C is 88.7%.

**Q.** And the viability, T/C (second compound 0.0316 µM, first compound 0.3 µM)?
**A.** Its viability, T/C is 67.3%.

**Q.** And the viability, T/C (second compound 0.1 µM, first compound 0.000949 µM)?
**A.** Its viability, T/C is 97.8%.

**Q.** And the viability, T/C (second compound 0.1 µM, first compound 0.003 µM)?
**A.** The viability, T/C was 98.9%.

**Q.** What about the viability, T/C (second compound 0.1 µM, first compound 0.00949 µM) of the same compound?
**A.** Its viability, T/C is 91.9%.

**Q.** And the viability, T/C (second compound 0.1 µM, first compound 0.03 µM)?
**A.** The viability, T/C was 80.9%.

**Q.** And the viability, T/C (second compound 0.1 µM, first compound 0.0949 µM)?
**A.** Its viability, T/C is 57.3%.

**Q.** What about the viability, T/C (second compound 0.1 µM, first compound 0.3 µM) of the same compound?
**A.** Its viability, T/C is 71.7%.

**Q.** And the viability, T/C (second compound 0.316 µM, first compound 0.000949 µM)?
**A.** The viability, T/C was 95.3%.

**Q.** And the viability, T/C (second compound 0.316 µM, first compound 0.003 µM)?
**A.** Its viability, T/C is 97.2%.

**Q.** What about the viability, T/C (second compound 0.316 µM, first compound 0.00949 µM) of the same compound?
**A.** Its viability, T/C is 86.2%.

**Q.** What about the viability, T/C (second compound 0.316 µM, first compound 0.03 µM) of the same compound?
**A.** The viability, T/C was 77.8%.

**Q.** What about the viability, T/C (second compound 0.316 µM, first compound 0.0949 µM) of the same compound?
**A.** The viability, T/C was 62%.

**Q.** What about the viability, T/C (second compound 0.316 µM, first compound 0.3 µM) of the same compound?
**A.** Its viability, T/C is 69.3%.

**Q.** What about the viability, T/C (second compound 1 µM, first compound 0.000949 µM) of the same compound?
**A.** The viability, T/C was 99.2%.

**Q.** And the viability, T/C (second compound 1 µM, first compound 0.003 µM)?
**A.** Its viability, T/C is 97.2%.

**Q.** And the viability, T/C (second compound 1 µM, first compound 0.00949 µM)?
**A.** The viability, T/C was 94.4%.

**Q.** And the viability, T/C (second compound 1 µM, first compound 0.03 µM)?
**A.** Its viability, T/C is 102%.

**Q.** And the viability, T/C (second compound 1 µM, first compound 0.0949 µM)?
**A.** Its viability, T/C is 78.3%.

**Q.** And the viability, T/C (second compound 1 µM, first compound 0.3 µM)?
**A.** Its viability, T/C is 56.7%.

**Q.** Which results are given for NC1CCC(NC2CC2c2ccccc2)CC1 (stereo not given) + CNC(C)C(=O)NC1CN(S(=O)(=O)c2cccc(S(=O)(=O)N3CCC4CCC(C(=O)NC(c5ccccc5)c5ccccc5)N4C(=O)C(NC(=O)C(C)NC)C3)c2)CCC2CCC(C(=O)NC(c3ccccc3)c3ccccc3)N2C1=O?
**A.** pIC50 (second compound 0.01 µM): < 7.00; pIC50 (second compound 0.0316 µM): < 7.00; pIC50 (second compound 0.1 µM): < 7.00; pIC50 (second compound 0.316 µM): < 7.00; pIC50 (second compound 1 µM): < 7.00; viability, T/C (second compound 0.01 µM, first compound 0.000316 µM): 111%; viability, T/C (second compound 0.01 µM, first compound 0.001 µM): 104%; viability, T/C [1]: 91.6%; viability, T/C [2]: 105%; viability, T/C [3]: 98.5%; viability, T/C [4]: 89.5%; viability, T/C (second compound 0.0316 µM, first compound 0.000316 µM): 85.7%; viability, T/C (second compound 0.0316 µM, first compound 0.001 µM): 91.9%; viability, T/C [5]: 88.5%; viability, T/C [6]: 94.8%; viability, T/C [7]: 90.7%; viability, T/C [8]: 88%; viability, T/C (second compound 0.1 µM, first compound 0.000316 µM): 92%; viability, T/C (second compound 0.1 µM, first compound 0.001 µM): 103%; viability, T/C [9]: 87.5%; viability, T/C [10]: 88.4%; viability, T/C [11]: 90.9%; viability, T/C [12]: 82.2%; viability, T/C (second compound 0.316 µM, first compound 0.000316 µM): 97.1%; viability, T/C (second compound 0.316 µM, first compound 0.001 µM): 90.1%; viability, T/C [13]: 102%; viability, T/C [14]: 86.9%; viability, T/C [15]: 88.3%; viability, T/C [16]: 98.7%; viability, T/C (second compound 1 µM, first compound 0.000316 µM): 100%; viability, T/C (second compound 1 µM, first compound 0.001 µM): 88.1%; viability, T/C [17]: 92.9%; viability, T/C [18]: 86.6%; viability, T/C [19]: 78.9%; viability, T/C [20]: 91.2%
